{
  "source": "ChEMBL document CHEMBL1132531",
  "about": "“From histamine to imidazolylalkyl-sulfonamides: the design of a novel series of histamine H3-receptor antagonists” (Bioorg Med Chem Lett, 1999)",
  "data": [
    {"target": "Histamine H3 receptor (Cavia porcellus) (UniProt Q9JI35)", "sequence (Q9JI35 whole entry)": "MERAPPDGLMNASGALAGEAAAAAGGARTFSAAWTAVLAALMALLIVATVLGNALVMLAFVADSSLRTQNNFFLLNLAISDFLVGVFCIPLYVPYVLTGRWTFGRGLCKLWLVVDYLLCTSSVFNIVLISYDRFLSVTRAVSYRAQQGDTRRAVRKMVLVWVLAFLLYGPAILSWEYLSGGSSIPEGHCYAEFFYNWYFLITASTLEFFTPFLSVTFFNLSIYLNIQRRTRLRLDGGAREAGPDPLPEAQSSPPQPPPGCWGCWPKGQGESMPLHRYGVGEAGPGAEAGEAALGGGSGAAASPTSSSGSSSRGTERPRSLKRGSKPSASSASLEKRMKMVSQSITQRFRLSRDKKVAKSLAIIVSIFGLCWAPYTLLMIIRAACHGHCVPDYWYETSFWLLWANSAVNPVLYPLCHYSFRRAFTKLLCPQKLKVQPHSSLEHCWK", "experiment": "Inhibition of H3-receptor mediated neurogenic contractions in the isolated guinea pig ileum assay", "format": "functional, tissue-based", "values": [
      {"smiles": "O=S(=O)(Cc1ccc2ccccc2c1)NCCc1c[nH]cn1", "pKB": "< 5"},
      {"smiles": "O=S(=O)(NCCCCCCCCCCc1c[nH]cn1)c1ccc2ccccc2c1", "pKB": 5.79},
      {"smiles": "O=S(=O)(NCCCCCc1c[nH]cn1)c1ccc2ccccc2c1", "pKB": 6.96},
      {"smiles": "O=S(=O)(CCC1CCCCC1)NCCc1c[nH]cn1", "pKB": 5.87},
      {"smiles": "O=S(=O)(/C=C/c1ccccc1)NCCc1c[nH]cn1", "pKB": "< 5.5"},
      {"smiles": "O=S(=O)(NCCCCCCCc1c[nH]cn1)c1ccc2ccccc2c1", "pKB": 6.88},
      {"smiles": "O=S(=O)(NCCCc1c[nH]cn1)c1ccc2ccccc2c1", "pKB": 5.93},
      {"smiles": "O=S(=O)(NCCCCCCCCc1c[nH]cn1)c1ccc2ccccc2c1", "pKB": 6.62},
      {"smiles": "O=S(=O)(Cc1ccccc1)NCCc1c[nH]cn1", "pKB": "< 5"},
      {"smiles": "O=S(=O)(NCCCCCCc1c[nH]cn1)c1ccc2ccccc2c1", "pKB": 7.11},
      {"smiles": "O=S(=O)(NCCCCc1c[nH]cn1)c1ccc2ccccc2c1", "pKB": 6.81},
      {"smiles": "O=S(=O)(NCCc1c[nH]cn1)c1ccc2ccccc2c1", "pKB": 6.7}
    ]},
    {"target": "Histamine H3 receptor (Cavia porcellus) (UniProt Q9JI35)", "experiment": "Compound was tested for inhibition of histamine H3-receptor mediated neurogenic contractions in the isolated guinea pig ileum assay; Partial agonist", "format": "functional, tissue-based", "values": [
      {"smiles": "CS(=O)(=O)NCCc1c[nH]cn1", "pKB": 4.77}
    ]},
    {"target": "Histamine H3 receptor (Cavia porcellus) (UniProt Q9JI35)", "experiment": "Compound was tested for inhibition of histamine H3-receptor mediated neurogenic contractions in the isolated guinea pig ileum assay; Full agonist", "format": "functional, tissue-based", "values": [
      {"smiles": "C[C@@H](N)Cc1c[nH]cn1", "p[A]50": 7.94},
      {"smiles": "C[C@H](Cc1c[nH]cn1)NS(=O)(=O)c1ccc2ccccc2c1", "p[A]50": 6.02},
      {"smiles": "NCCc1c[nH]cn1", "note": "[HISTAMINE]", "p[A]50": 7.15}
    ]},
    {"target": "T1, Histamine H3 receptor (Cavia porcellus, UniProt Q9JI35)", "T1 sequence (Q9JI35 whole entry)": "as above", "experiment": "Binding affinity towards histamine H3 receptor using [3H](R)-alpha-methylhistamine as radioligand in guinea pig cortical homogenates", "units": {"Ki": "nM"}, "values": [
      {"smiles": "O=S(=O)(Cc1ccc2ccccc2c1)NCCc1c[nH]cn1", "Ki": 490},
      {"smiles": "O=S(=O)(NCCCCCCCCCCc1c[nH]cn1)c1ccc2ccccc2c1", "Ki": 138},
      {"smiles": "O=S(=O)(NCCCCCc1c[nH]cn1)c1ccc2ccccc2c1", "Ki": 14.8},
      {"smiles": "O=S(=O)(CCC1CCCCC1)NCCc1c[nH]cn1", "Ki": 16.2},
      {"smiles": "O=S(=O)(/C=C/c1ccccc1)NCCc1c[nH]cn1", "Ki": 115},
      {"smiles": "C[C@@H](N)Cc1c[nH]cn1", "Ki": 0.0851},
      {"smiles": "C[C@H](Cc1c[nH]cn1)NS(=O)(=O)c1ccc2ccccc2c1", "Ki": 1.02},
      {"smiles": "O=S(=O)(NCCCCCCCc1c[nH]cn1)c1ccc2ccccc2c1", "Ki": 50.1},
      {"smiles": "O=S(=O)(NCCCc1c[nH]cn1)c1ccc2ccccc2c1", "Ki": 14.1},
      {"smiles": "O=S(=O)(NCCCCCCc1c[nH]cn1)c1ccc2ccccc2c1", "Ki": 25.1},
      {"smiles": "NCCc1c[nH]cn1", "note": "[HISTAMINE]", "Ki": 0.145},
      {"smiles": "O=S(=O)(NCCCCc1c[nH]cn1)c1ccc2ccccc2c1", "Ki": 22.9}
    ]},
    {"target": "T1, Histamine H3 receptor", "experiment": "Binding affinity towards histamine H3 receptor using [3H](R)-alpha-methylhistamine as radioligand in guinea pig ileum LMMP homogenates", "format": "tissue-based", "units": {"Ki": "nM"}, "values": [
      {"smiles": "O=S(=O)(Cc1ccc2ccccc2c1)NCCc1c[nH]cn1", "Ki": 1150},
      {"smiles": "C[C@@H](N)Cc1c[nH]cn1", "Ki": 0.151},
      {"smiles": "NCCc1c[nH]cn1", "note": "[HISTAMINE]", "Ki": 10.5},
      {"smiles": "CS(=O)(=O)NCCc1c[nH]cn1", "Ki": 186}
    ]}
  ]
}
